Test results published in US6673768B1, “Transgenic animal models for cardiac hypertrophy and methods of use thereof (treating)” (Board of Regents, The University of Texas System, priority 1997, dated 2004).

Columns and labels:
[1] = tested on: neonatal rat cardiomyocytes; experiment: AngII- and PE-induced hypertrophy of primary cardiomyocytes (anti-α-actinin staining, cell size and sarcomeric assembly); assay type: cell-based; settings: 72 hr; AngII 10 nM or PE 10 μM
Protocol: To visualize primary cardiomyocytes and their sarcomeric organization, anti-α-actinin mouse monoclonal antibody was used (Sigma). […] Cells were washed in 1×phosphate-buffered saline (PBS), fixed in 3.7% paraformaldehyde for 5 minutes, washed three times with 1×PBS and then pre-blocked in 1×PBS containing 2% horse serum, 2% BSA, and 0.1% non-ionic detergent NP40 for 30 minutes. Anti-α-actinin antibody was added at a dilution of 1:800 in fresh preblock solution and incubated for an additional 30 minutes. Subsequently, the cells were washed three times in 1×PBS with 0.1% NP40. Anti-mouse TRITC-conjugated secondary antibody was then added at a dilution of 1:400 for 30 minutes in pre-block solution and the cells were again washed three times in 1×PBS containing 0.1% NP40. Nuclear staining for DNA was performed with 0.5 μg/ml of bisbenzimide in PBS for 15 minutes followed by three rinses with PBS.

[2] = tested on: atrial natriuretic factor (ANF) mRNA; experiment: ANF mRNA dot blot in primary cardiomyocytes treated with AngII; assay type: cell-based, rat; settings: AngII exposure
Protocol: A-F, Primary rat cardiocytes in serum-free medium were stimulated with AngII (10 nM) or PE (10 μm) for 72 hours. Cells were then fixed and stained with anti-α-actinin antibody to reveal sarcomeres and Hoechst stain to reveal nuclei. […] G, Total RNA was isolated from primary cardiocyte cultures treated with AngII in the presence or absence of CsA as in A and analyzed for expression of GAPDH and ANF transcripts by dot blot. H, Primary rat cardiomyocytes were transiently transfected with a luciferase reporter gene linked to 3 tandem copies of the NF-AT consensus binding site. Cells were then treated with AngII or PE in the presence or absence of CsA, as described above. Forty-eight hours later, cells were harvested and luciferase activity was determined.
To determine whether changes in cardiomyocyte gene expression in response to AngII were also controlled by a calcineurin-dependent signaling pathway, the expression of ANF mRNA in cardiomyocytes treated with AngII was examined in the presence and absence of CsA by a dot blot assay. […] GAPDH mRNA was measured as a control.
RNA analysis. Total RNA was collected and purified with Triazol reagent (Gibco BRL) as recommended. […]

angiotensin II [AngII, humoral factor which induces the hypertrophic response in cardiomyocytes]
cardiomyocyte size and sarcomeric assembly after exposure to agonist [1]: dramatic increase in size and sarcomeric assembly | increase in ANF mRNA [2]: 15 fold
